What was measured:
[1] = Hygroscopicity test (Chinese Pharmacopoeia 2010, weight gain by sorption); format: physicochemical; conditions: 25° C.±1° C., about 24 h; for Result (hygroscopic properties): cell wraps: 'Low hygroscopic'; for Weight gain by absorption (%): constant humidity (saturated ammonium chloride or ammonium sulfate)
Experimental: Hygroscopicity Test of Crystalline Form I and Form III of the Compound of Formula (I) 1 Instrument and Regents 1.1 Instrument: 1/100000 Scale, XP205DR 1.2 Test Method According to “Chinese Pharmacopoeia”2010 edition, proportion II, XI X J. 1) Keep a dry glass weighing bottle with stopper (external diameter: 50 mm, height: 15 mm) in 25° C.±1° C. of thermostatic drier with saturated solution of ammonium chloride or ammonium sulfate placing on the bottom, precisely weighed (m1). 2) An appropriate amount of sample was spread in the weighing bottle by a millimeter thick, precisely weighed (m2). 3) An open weighing bottle and lid were kept together in environment of constant temperature and humidity for about 24 h.

[2] = Stability (acceleration) test of crystalline forms, purity by HPLC; format: physicochemical; conditions: for change of appearance, related substance and crystalline form: 30 days; for Overall impurity (%) / impurity A (%) / impurity B (%) / purity (%): HPLC; for appearance: cell wraps ('powder' on next line)
[3] = day 0, cell wraps: shows characteristic peaks of the crystalline form
[4] = day 30, 40° C.±2° C./75% RH±5%, Yes = shows characteristic peaks of the crystalline form

## COC(=O)N(C)c1c(N)nc(-c2nn(Cc3ccccc3F)c3ncccc23)nc1N [crystalline form I, methyl {4,6-diamino-2-[1-(2-fluorobenzyl)-1H-pyrazolo[3,4-B]pyridine-3-yl]pyrimidine-5-yl}N-methylcarbamate]
[1]
  Result (hygroscopic properties): Low
  Weight gain by absorption (%): 0.1%
[2]; 40° C.±2° C./75% RH±5%
  stability: stable for a month
  change of appearance, related substance and crystalline form: did not change
[2]; day 0, 40° C.±2° C./75% RH±5%
  Overall impurity (%): 0.44%
  impurity A (%): 0.06%
  impurity B (%): 0.26%
  purity (%): 99.6%
  appearance: Off-white
[2]; [3]
  DSC: Shows
  XRD: Shows
[2]; day 30, 40° C.±2° C./75% RH±5%
  Overall impurity (%): 0.43%
  impurity A (%): 0.06%
  impurity B (%): 0.26%
  purity (%): 99.6%
  appearance: Off-white
[2]; [4]
  DSC: Yes
  XRD: Yes

## COC(=O)N(C)c1c(N)nc(-c2nn(Cc3ccccc3F)c3ncccc23)nc1N [crystalline form III, methyl {4,6-diamino-2-[1-(2-fluorobenzyl)-1H-pyrazolo[3,4-B]pyridine-3-yl]pyrimidine-5-yl}N-methylcarbamate]
[1]
  Result (hygroscopic properties): Low
  Weight gain by absorption (%): 0.04%
[2]; 40° C.±2° C./75% RH±5%
  stability: stable for a month
  change of appearance, related substance and crystalline form: did not change
[2]; day 0, 40° C.±2° C./75% RH±5%
  Overall impurity (%): 0.65%
  impurity A (%): 0.05%
  impurity B (%): 0.35%
  purity (%): 99.4%
  appearance: pale yellow
[2]; [3]
  DSC: Show
  XRD: Show
[2]; day 30, 40° C.±2° C./75% RH±5%
  Overall impurity (%): 0.57%
  impurity A (%): 0.04%
  impurity B (%): 0.34%
  purity (%): 99.4%
  appearance: pale yellow
[2]; [4]
  DSC: Yes
  XRD: Yes
